Read-outs that look alike come from different tables or passages of the source.
What was measured:
[1] = system: pressor response to AII; assay: Assay C: In vivo intragastric pressor assay response for AII antagonists; set-up: species or system rat; conditions: dose not given, intraduodenally
[2] = system: pressor response to AII; assay: as above; set-up: species or system rat; conditions: dose not given, intragastrically
Method: Assay C: In Vivo Intragastric Pressor Assay Response for All Antagonists
Male Sprague-Dawley rats weighing 225-300 grams were anesthetized with methohexital (30 mg/kg, i.p.) and catheters were implanted into the femoral artery and vein. The catheters were tunneled subcutaneously to exit dorsally, posterior to the head and between the scapulae. The catheters were filled with heparin (1000 units/ml of saline). The rats were returned to their cage and allowed regular rate chow and water ad libitum. After full recovery from surgery (3-4 days), rats were placed in Lucite holders and the arterial line was connected to a pressure transducer. Arterial pressure was recorded on a Gould polygraph (mmHg). Angiotensin II was administered as a 30 ng/kg bolus via the venous catheter delivered in a 50 μl volume with a 0.1 ml saline flush. The pressor response in mm Hg was measured by the difference from pre-injection arterial pressure to the maximum pressure achieved. The AII injection was repeated every 10 minutes until three consecutive injections yielded responses within 4 mmHg of each other. These three responses were then averaged and represented the control response to AII. The test compound was suspended in 0.5% methylcellulose in water and was administered by gavage. The volume administered was 2 ml/kg body weight. The standard dose was 3 mg/kg. Angiotensin II bolus injections were given at 30, 45, 60, 75, 120, 150, and 180 minutes after gavage. The pressor response to AII was measured at each time point. The rats were then returned to their cage for future testing. A minimum of 3 days was allowed between tests. Percent inhibition was calculated for each time point following gavage by the following formula: [(Control Response—Response at time point)/Control Response]×100.

[3] = molecular target: angiotensin II AT1 receptor; assay: Assay A: Angiotensin II binding activity, 125I-AII displacement in rat uterine membrane preparation
Method: Assay A: Antiotensin II Binding Activity
Compounds of the invention were tested for ability to bind to the smooth muscle angiotensin II receptor using a rat uterine membrane preparation. […] The reaction was initiated by the addition of membrane protein and the mixture was incubated at 25° C. for 60 min. The incubation was terminated with ice-cold 50 mM Tris-HCl (pH 7.5) and the mixture was filtered to separate membrane-bound labelled peptide from the free ligand. The incubation tube and filter were washed with ice-cold buffer. Filters were assayed for radioactivity in a Micromedic gamma counter. Nonspecific binding was defined as binding in the presence of 10 μM of unlabelled AII. Specific binding was calculated as total binding minus nonspecific binding. […] Binding data were analyzed by a nonlinear least-squares curve fitting program.

[4] = system: rabbit aortic rings; assay: Assay B: In vitro vascular smooth muscle response for AII, antagonist activity in aortic rings; format: cell-based; conditions: Oryctolagus cuniculus, two determinations separated by /, read-out: Assay B pA2 (converted)
Method: Assay B: In Vitro Vascular Smooth Muscle-Response for AII
The compounds of the invention were tested for antagonist activity in rabbit aortic rings. Male New Zealand white rabbits (2-2.5 kg) were sacrificed using an overdose of pentobarbital and exsanguinated via the carotid arteries. The thoracic aorta was removed, cleaned of adherent fat and connective tissue and then cut into 3-mm ring segments. The endothelium was removed from the rings by gently sliding a rolled-up piece of filter paper into the vessel lumen. The rings were then mounted in a water-jacketed tissue bath, maintained at 37° C., between moveable and fixed ends of a stainless steel wire with the moveable end attached to an FT03 Grass transducer coupled to a Model 7D Grass Polygraph for recording isometric force responses. The bath was filled with 20 ml of oxygenated (95% oxygen/5% carbon dioxide) Krebs solution of the following composition (mM); 130 NaCl, 15 NaHCO3, […], 1.2 NaH2PO4, 1.2 MgSO4, 2.5 CaCl2, and 11.4 glucose. The preparations were equilibrated for one hour before approximately one gram of passive tension was placed on the rings. Angiotensin II concentration-response curves were then recorded (3×10^−10 to 1×10^−5 M). Each concentration of AII was allowed to elicit its maximal contraction, and then AII was washed out repeatedly for 30 minutes before rechallenging with a higher concentration of AII. Aorta rings were exposed to the test antagonist at 10^−5 M for 5 minutes before challenging with AII. Adjacent segments of the same aorta ring were used for all concentration-response curves in the presence of absence of the test antagonist. The effectiveness of the test compound was expressed in terms of pA2 values and were calculated according to H. O. Schild [Br. J. Pharmacol. Chemother., 2, 189-206 (1947)]. The pA2 value is the concentration of the antagonist which increases the EC50 value for AII by a factor of two. Each test antagonist was evaluated in aorta rings from two rabbits.

[5] = system: myocardial fibrosis; conditions: animal models, cited from earlier work

IC50 [3] [µM]	SMILES	Assay C Duration [2] [min]	further results
	CCCCc1nn(CCCC)c(=O)n1Cc1ccc(-c2ccccc2C(=O)O)cc1 [Compound 78]		Assay C Duration [1]: 60 to 100 min
	CCCCc1nn(CCCc2ccccc2)c(=O)n1Cc1ccc(-c2ccccc2-c2nn[nH]n2)cc1 [Compound 81]	180	
	CCCCc1nn(CC(=O)c2ccccc2)c(=O)n1Cc1ccc(-c2ccccc2-c2nn[nH]n2)cc1 [Compound 82]	180	
	CCCCc1nn(CC(O)c2ccccc2)c(=O)n1Cc1ccc(-c2ccccc2-c2nn[nH]n2)cc1 (stereo not drawn) [Compound 83]	>180	
	CCCCc1nn(CC(=O)OC(C)(C)C)c(=O)n1Cc1ccc(-c2ccccc2-c2nn[nH]n2)cc1 [Compound 84]	30	
	CCCCc1nn(CC(OCC(=O)O)c2ccccc2)c(=O)n1Cc1ccc(-c2ccccc2-c2nn[nH]n2)cc1 (stereo not drawn) [Compound 91]	>180	
0.022	CCCCc1nn(CC(C)c2cc(OC)ccc2OC)c(=O)n1Cc1ccc(-c2ccccc2-c2nn[nH]n2)cc1 (stereo not drawn) [Compound 98]		Kb [4]: 0.00794 µM
0.04	CCCCc1nc2c(OC(C)=O)nnc(OC(C)=O)c2n1Cc1ccc(-c2ccccc2-c2nnn[nH]2)cc1 [Compound 125]		
	CCCCc1cn(CCc2ccccc2)c(=O)n1Cc1ccc(-c2ccccc2-c2nnn[nH]2)cc1 [Compound 133]	90 to 120	
	CCCCc1nc(CCCC)n(Cc2ccc(-n3c(Cl)cc(Cl)c3-c3nnn[nH]3)cc2)n1 [Compound 143]		Assay C Duration [1]: 75 min
0.38	CCCn1nc(C(F)F)nc1Cc1ccc(-c2ccccc2-c2nnn[nH]2)nc1 [Compound 162]		
0.42	CCCCn1nc(C(F)F)nc1Cc1ccc(-c2ccccc2-c2nnn[nH]2)nc1 [Compound 163]		
	CC(=O)S[C@@H]1CC2=CC(=O)CC[C@]2(C)[C@H]2CC[C@@]3(C)[C@@H](CC[C@@]34CCC(=O)O4)[C@H]12 [spironolactone]		prevention of myocardial fibrosis [5]: prevents myocardial fibrosis in animal models; prevention of myocardial fibrosis ([5]; listed as Spironolactone): prevent fibrosis in animal models irrespective of the development of left ventricular hypertrophy and the presence of hypertension

— patent publication US6984633B2, “Method to treat cardiofibrosis with a combination therapy of an angiotensin II antagonist and epoxymexrenone” (G.D Searle & Co., priority 1995, dated 2006)
